Source: the supplement of paper PMC10307832

Assays:
Assay in all cases: relative viability (nuclei count vs DMSO), 5 days (fraction); higher = more cells survive
Doramapimod + Lapatinib = compound: Cc1ccc(-n2nc(C(C)(C)C)cc2NC(=O)Nc2ccc(OCCN3CCOCC3)c3ccccc23)cc1 [Doramapimod] + CS(=O)(=O)CCNCc1ccc(-c2ccc3ncnc(Nc4ccc(OCc5cccc(F)c5)c(Cl)c4)c3c2)o1 [Lapatinib] (partner 2 µM)
Method in brief: (§1)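 The day after seeding in 1536-well plates, lung cancer cell lines were treated by pin tool with a single drug, or with a fixed anchor-drug dose together with five library-drug doses (not always all listed) in √10 steps. After 5 days, a combined fix-and-stain solution (final 0.05% Triton X-100, 1% formaldehyde, 1 ug/ml Hoechst) was added. Nuclei counted on 4× images gave relative viability as treated counts over vehicle counts, reported as the median of duplicate plates.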

RAF265 + Tozasertib = compound: Cn1c(Nc2ccc(C(F)(F)F)cc2)nc2cc(Oc3ccnc(-c4ncc(C(F)(F)F)[nH]4)c3)ccc21 [RAF265] + Cc1cc(Nc2cc(N3CCN(C)CC3)nc(Sc3ccc(NC(=O)C4CC4)cc3)n2)n[nH]1 [Tozasertib] (partner 0.1 µM)
Method in brief: as §1

IPA-3 + Crizotinib = compound: C1=CC=C2C(=C1)C=CC(=C2SSC3=C(C=CC4=CC=CC=C43)O)O [IPA-3] + C[C@@H](Oc1cc(-c2cnn(C3CCNCC3)c2)cnc1N)c1c(Cl)ccc(F)c1Cl [Crizotinib] (partner 1 µM)
Method in brief: as §1

RAF265 + Linsitinib = compound: Cn1c(Nc2ccc(C(F)(F)F)cc2)nc2cc(Oc3ccnc(-c4ncc(C(F)(F)F)[nH]4)c3)ccc21 [RAF265] + C[C@]1(O)C[C@@H](c2nc(-c3ccc4ccc(-c5ccccc5)nc4c3)c3c(N)nccn32)C1 [Linsitinib] (partner 1 µM)
Method in brief: as §1

Cell Line	relative viability (Doramapimod + Lapatinib; first compound 0.02 µM)	relative viability (Doramapimod + Lapatinib; first compound 0.06325 µM)	relative viability (Doramapimod + Lapatinib; first compound 0.2 µM)	relative viability (Doramapimod + Lapatinib; first compound 0.6325 µM)	relative viability (Doramapimod + Lapatinib; first compound 2 µM)	relative viability (RAF265 + Tozasertib; first compound 0.01 µM)	relative viability (RAF265 + Tozasertib; first compound 0.03162 µM)	relative viability (RAF265 + Tozasertib; first compound 0.1 µM)	relative viability (RAF265 + Tozasertib; first compound 0.3162 µM)	relative viability (RAF265 + Tozasertib; first compound 1 µM)	relative viability (IPA-3 + Crizotinib; first compound 0.2 µM)	relative viability (IPA-3 + Crizotinib; first compound 0.6325 µM)	relative viability (IPA-3 + Crizotinib; first compound 2 µM)	relative viability (IPA-3 + Crizotinib; first compound 6.325 µM)	relative viability (IPA-3 + Crizotinib; first compound 20 µM)	relative viability (RAF265 + Linsitinib; first compound 0.01 µM)	relative viability (RAF265 + Linsitinib; first compound 0.03162 µM)	relative viability (RAF265 + Linsitinib; first compound 0.1 µM)	relative viability (RAF265 + Linsitinib; first compound 0.3162 µM)	relative viability (RAF265 + Linsitinib; first compound 1 µM)
NCI-H2405	1.15	1.1	1.07	1.16	0.969	0.798	0.736	0.876	0.853	0.458	0.863	0.865	0.856	0.841	0.878	0.993	0.884	1.03	0.852	0.378
NCI-H3122	1.02	0.962	0.974	1.08	0.932	0.362	0.492	0.424	–	0.283	0.265	0.283	0.324	0.269	0.273	1.02	1.2	0.947	1.02	0.841
PC-3 [JPC-3]	0.475	0.433	0.432	0.485	0.348	0.889	0.868	0.985	–	0.518	1.04	0.964	0.937	0.976	0.923	1.03	0.911	1.04	0.416	0.722
PC-14	0.292	0.322	0.346	0.425	0.319	0.629	0.555	0.655	–	0.542	0.938	0.858	1.08	0.839	1	1.02	0.968	1.02	–	0.788
RERF-LC-KJ	0.983	0.946	0.879	0.908	0.814	0.54	0.482	0.507	0.39	0.386	0.794	0.796	0.922	0.789	0.816	0.915	0.835	0.95	0.859	0.636
SK-LU-1	0.975	0.947	0.971	0.806	0.762	0.333	0.273	0.296	0.278	0.204	1.27	–	0.929	0.823	0.89	1.14	0.7	0.687	0.523	0.428
SK-MES-1	0.455	0.453	0.389	0.451	0.376	0.853	0.603	0.399	0.348	0.275	0.981	1	1.13	0.94	0.87	1.14	0.926	0.947	0.562	0.249
SW 1573	0.982	0.939	0.897	1.04	1.2	0.168	0.24	0.171	0.183	0.139	0.802	0.814	0.933	0.872	0.811	0.767	0.744	0.796	0.612	0.508
